Source: US20260256738A1, “METHODS OF TREATING CANCER WITH A RAS MUTATION” (Immuneering Corporation, priority 2023, published 2026)
Read-outs that look alike come from different tables or passages of the source.

Legend:
[1] = Human plasma pharmacokinetics of approved MEK inhibitors; format: in vivo; details: human dosing cycle
[2] = cited from earlier work
CYP450 2C19 = CYP450 2C19 (Homo sapiens, UniProt P33261); experiment: CYP450 Panel; format: in vitro ADME; details: 10 μM; substrate mephenytoin; in % (unit assumed)
CYP450 2C9 = CYP450 2C9 (Homo sapiens, UniProt P11712); experiment: CYP450 Panel; format: in vitro ADME; details: 10 μM; substrate Diclofenac; in % (unit assumed)
CYP450 2D6 [3] = molecular target: T1, CYP450 2D6 (Homo sapiens, UniProt P10635)
CYP450 3A4 = CYP450 3A4 (Homo sapiens, UniProt P08684); experiment: CYP450 Panel; format: in vitro ADME; details: 10 μM; for CYP450 Panel 3A4 (midazolam): substrate midazolam; for CYP450 Panel 3A4 (testosterone): substrate testosterone
hERG Channel = hERG Channel (Homo sapiens, UniProt Q12809); experiment: biochemical
[4] = Microsome Stability (% remaining @1 hour); format: in vitro ADME; details: Human; 2 μM
[5] = Plasma Stability (% remaining @2 hour); format: in vitro ADME; details: Human; 2 μM
[6] = Plasma Stability (% remaining @2 hour); format: in vitro ADME; details: Beagle Dog; 2 μM
pERK in A549 (KRAS-G12S) = experiment: Cell-based pERK dose response / phospho-ERK screen in A549; set-up: species or system Human; details: A549 (KRAS G12S), 10 μM for 2 hours
Protocol: Materials and Methods: A549 or A375 cells were seeded in 6-well plates at an appropriate seeding density on day 0. On day 2 or 3, after checking the health and confluency of cells, the media was aspirated and replaced with 1 mL media containing a predetermined concentration of compound and incubated for 2 hours. After 2 hours, the media was aspirated, and the cells washed 2 times with cold PBS. Cells were lysed on ice, with 50 μL 1× CST lysis buffer+1 mM PMSF for 5 minutes. After 5 minutes, cells were removed using a scraper and transferred to cold 1.5 mL tubes, and centrifuged for 10 min, 4° C., 14,000×g. Supernatant was gently removed and snap frozen in liquid nitrogen. Protein concentration of the lysate was determined using Bradford Reagent (analyzed using SpectraMax M2E) and diluted to 1 mg/mL or pERK or 1.5 mg/mL for pMEK analysis. […] All dilutions were in Milk-free antibody diluent.

[7] = Microsome Stability (% remaining @1 hour); format: in vitro ADME; details: Beagle Dog; 2 μM
Caco-2 permeability = details: human
Caco-2 [8] = experiment: Caco-2 permeability; details: 10 μM, 2 hrs
[9] = Microsome Stability (% remaining @1 hour); details: CD-1 Mouse; 2 μM
[10] = Plasma Stability (% remaining @2 hour); format: in vitro ADME; details: SD Rat; 2 μM
CYP450 1A2 = molecular target: T2, CYP450 1A2 (Homo sapiens, UniProt P05177); experiment: CYP450 Panel; details: 10 μM; substrate phenacetin; in % (unit assumed)
T2 sequence (P05177 1-516): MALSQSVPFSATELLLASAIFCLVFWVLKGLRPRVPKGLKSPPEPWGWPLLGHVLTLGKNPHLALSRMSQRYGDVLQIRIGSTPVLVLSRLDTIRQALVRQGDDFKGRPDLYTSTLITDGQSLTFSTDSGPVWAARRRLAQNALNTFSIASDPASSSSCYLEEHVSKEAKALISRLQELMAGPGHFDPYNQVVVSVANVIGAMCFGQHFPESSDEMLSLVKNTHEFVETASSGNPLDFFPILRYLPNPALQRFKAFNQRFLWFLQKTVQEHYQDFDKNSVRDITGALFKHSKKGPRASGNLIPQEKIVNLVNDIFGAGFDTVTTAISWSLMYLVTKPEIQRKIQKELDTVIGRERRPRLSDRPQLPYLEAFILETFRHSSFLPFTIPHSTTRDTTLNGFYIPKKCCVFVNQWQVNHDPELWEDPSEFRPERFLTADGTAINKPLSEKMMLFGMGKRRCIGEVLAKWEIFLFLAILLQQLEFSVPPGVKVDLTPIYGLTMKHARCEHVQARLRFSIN

CYP450 2C8 = molecular target: T3, CYP450 2C8 (Homo sapiens, UniProt P10632); experiment: CYP450 Panel; format: in vitro ADME; details: 10 μM; substrate amodiaquine
T3 sequence (P10632 1-490): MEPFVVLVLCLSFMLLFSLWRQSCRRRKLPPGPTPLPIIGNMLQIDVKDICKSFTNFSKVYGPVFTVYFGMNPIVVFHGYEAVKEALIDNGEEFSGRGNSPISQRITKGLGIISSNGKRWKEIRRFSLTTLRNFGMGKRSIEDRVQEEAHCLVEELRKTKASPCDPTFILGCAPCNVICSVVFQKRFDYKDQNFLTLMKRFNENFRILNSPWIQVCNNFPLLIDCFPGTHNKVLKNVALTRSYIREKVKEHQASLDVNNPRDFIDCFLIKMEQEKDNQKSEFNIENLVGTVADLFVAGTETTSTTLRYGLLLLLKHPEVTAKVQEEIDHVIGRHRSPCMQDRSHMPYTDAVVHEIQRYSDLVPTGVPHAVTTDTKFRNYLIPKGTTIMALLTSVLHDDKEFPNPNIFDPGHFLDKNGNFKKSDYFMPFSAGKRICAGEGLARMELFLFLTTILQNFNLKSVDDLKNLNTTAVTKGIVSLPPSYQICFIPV

[11] = Microsome Stability (% remaining @1 hour); format: in vitro ADME; details: SD Rat; 2 μM
CYP450 2D6 [12] = molecular target: T1, CYP450 2D6; experiment: CYP450 Panel; details: 10 μM; substrate dextromethorphan; in % (unit assumed)
[13] = Plasma Stability (% remaining @2 hour); format: in vitro ADME; details: CD-1 Mouse; 2 μM
CYP450 2B6 = molecular target: T4, CYP450 2B6 (Homo sapiens, UniProt P20813); experiment: CYP450 Panel; format: in vitro ADME; details: 10 μM; substrate bupropion
T4 sequence (P20813 1-491): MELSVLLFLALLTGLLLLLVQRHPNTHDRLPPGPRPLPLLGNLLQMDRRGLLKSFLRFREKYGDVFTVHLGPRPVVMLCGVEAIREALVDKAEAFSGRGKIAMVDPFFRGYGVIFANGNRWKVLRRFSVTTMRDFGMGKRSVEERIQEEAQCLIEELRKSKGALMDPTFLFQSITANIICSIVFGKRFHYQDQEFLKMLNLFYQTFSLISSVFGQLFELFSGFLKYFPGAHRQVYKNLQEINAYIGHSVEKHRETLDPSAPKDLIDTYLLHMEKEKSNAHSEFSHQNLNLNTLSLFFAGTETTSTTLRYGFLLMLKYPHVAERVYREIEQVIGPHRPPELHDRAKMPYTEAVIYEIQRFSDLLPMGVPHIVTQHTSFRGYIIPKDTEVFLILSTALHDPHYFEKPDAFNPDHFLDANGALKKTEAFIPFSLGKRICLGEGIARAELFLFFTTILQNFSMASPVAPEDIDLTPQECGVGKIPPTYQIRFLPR

Caco-2 [14] = test system: Caco-2
[15] = Tissue pharmacokinetics in Colon-26 tumor bearing mice, 2-hour post dose; format: in vivo; details: single dose 100 mg/kg p.o.
Protocol: Female mice (either athymic BALC/c nude, or BALB/c mice) were inoculated with a single subcutaneous injection of 0.2 ml of mouse Colon-26 cell suspension (1×10^5 cells per animal) in the inguinal region. Colon26 (C26) tumor bearing mice received a single dose (3 mice/treatment) of vehicle (10% DMSO/90% [20% SBE-R-CD in saline], pH 5) containing compounds at 100 mg/kg by gavage (p.o.) and 2-hour post dose humanely euthanized.
Blood was obtained through cardiac puncture into K+EDTA tubes, mixed by inversion and centrifuged to obtain the plasma. Tissues were excised, cleaned of surrounding tissues. All samples immediately snap frozen in liquid N2 prior to LC-MS/MS analysis (using Waters HSS T3 2.1×50 mm (1.8 um) LC column, and an API-6500 Electrospray MS unit).

[16] = eLogD (lipophilicity; pH=7.4); format: physicochemical
Protocol: Test compounds were dissolved in DMSO at a concentration of 10 mM and further diluted with methanol:water 1:1. Samples were analyzed using gradient HPLC with three different isocratic mobile phases of 0.25% octanol in methanol (60, 65 and 70%) and 20 mM MOPS buffer (pH 7.4) with decylamine. If needed, (for low E log Doct compounds) the isocratic mobile phases were adjusted to e.g. 40, 45 and 50% methanol. Peaks were detected using a diode array at absorbance 220-320 nm.
Capacity factors data (k′_(tr−_t0)/t0) obtained at various amounts of methanol were extrapolated to 0% methanol and k′w values are determined using a linear procedure. E log Doct (7.4) is calculated using a series of reference standards with known Log D values. Each experiment was performed in triplicate.

CYP450 3A4, sequence (P08684 whole entry): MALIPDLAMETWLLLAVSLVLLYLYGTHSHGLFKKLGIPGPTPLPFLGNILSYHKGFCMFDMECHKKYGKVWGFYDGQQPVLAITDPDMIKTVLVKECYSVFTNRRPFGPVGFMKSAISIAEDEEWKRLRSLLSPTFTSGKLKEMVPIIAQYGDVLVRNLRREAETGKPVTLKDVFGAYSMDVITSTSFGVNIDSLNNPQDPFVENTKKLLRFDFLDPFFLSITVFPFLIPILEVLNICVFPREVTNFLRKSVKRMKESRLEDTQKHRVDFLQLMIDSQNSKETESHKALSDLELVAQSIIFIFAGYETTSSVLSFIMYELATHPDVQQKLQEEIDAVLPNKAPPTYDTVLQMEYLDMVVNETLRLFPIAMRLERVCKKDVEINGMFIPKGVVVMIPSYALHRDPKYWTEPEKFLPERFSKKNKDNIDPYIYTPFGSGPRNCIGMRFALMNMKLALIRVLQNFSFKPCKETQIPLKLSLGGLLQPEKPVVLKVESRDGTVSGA
T1 sequence (P10635 whole entry): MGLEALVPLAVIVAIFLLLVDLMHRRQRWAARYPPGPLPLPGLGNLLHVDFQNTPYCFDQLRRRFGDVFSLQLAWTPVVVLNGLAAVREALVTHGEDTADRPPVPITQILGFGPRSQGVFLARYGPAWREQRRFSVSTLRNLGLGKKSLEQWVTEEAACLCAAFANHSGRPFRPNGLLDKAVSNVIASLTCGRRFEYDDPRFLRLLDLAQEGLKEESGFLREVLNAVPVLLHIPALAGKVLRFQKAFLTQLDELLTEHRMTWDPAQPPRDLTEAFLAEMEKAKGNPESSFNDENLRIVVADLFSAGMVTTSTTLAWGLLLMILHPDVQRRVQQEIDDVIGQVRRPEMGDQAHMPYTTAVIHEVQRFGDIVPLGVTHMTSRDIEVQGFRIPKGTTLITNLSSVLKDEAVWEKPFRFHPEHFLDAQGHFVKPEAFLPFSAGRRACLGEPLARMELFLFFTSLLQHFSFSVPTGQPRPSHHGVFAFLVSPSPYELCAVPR
CYP450 2C19, sequence (P33261 whole entry): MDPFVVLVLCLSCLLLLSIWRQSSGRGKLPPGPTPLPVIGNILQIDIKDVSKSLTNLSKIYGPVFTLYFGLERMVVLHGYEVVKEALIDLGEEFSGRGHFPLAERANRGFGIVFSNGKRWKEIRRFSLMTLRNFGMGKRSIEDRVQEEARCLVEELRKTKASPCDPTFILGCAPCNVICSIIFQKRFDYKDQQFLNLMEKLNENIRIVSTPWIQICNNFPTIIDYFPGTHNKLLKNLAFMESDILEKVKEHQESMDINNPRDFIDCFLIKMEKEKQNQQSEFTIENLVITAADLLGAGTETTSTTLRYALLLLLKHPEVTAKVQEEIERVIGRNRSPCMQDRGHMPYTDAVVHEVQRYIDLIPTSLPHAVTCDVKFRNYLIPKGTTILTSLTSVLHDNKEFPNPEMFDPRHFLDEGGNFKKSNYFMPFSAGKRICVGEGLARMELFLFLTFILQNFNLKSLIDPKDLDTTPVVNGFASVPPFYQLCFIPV
CYP450 2C9, sequence (P11712 whole entry): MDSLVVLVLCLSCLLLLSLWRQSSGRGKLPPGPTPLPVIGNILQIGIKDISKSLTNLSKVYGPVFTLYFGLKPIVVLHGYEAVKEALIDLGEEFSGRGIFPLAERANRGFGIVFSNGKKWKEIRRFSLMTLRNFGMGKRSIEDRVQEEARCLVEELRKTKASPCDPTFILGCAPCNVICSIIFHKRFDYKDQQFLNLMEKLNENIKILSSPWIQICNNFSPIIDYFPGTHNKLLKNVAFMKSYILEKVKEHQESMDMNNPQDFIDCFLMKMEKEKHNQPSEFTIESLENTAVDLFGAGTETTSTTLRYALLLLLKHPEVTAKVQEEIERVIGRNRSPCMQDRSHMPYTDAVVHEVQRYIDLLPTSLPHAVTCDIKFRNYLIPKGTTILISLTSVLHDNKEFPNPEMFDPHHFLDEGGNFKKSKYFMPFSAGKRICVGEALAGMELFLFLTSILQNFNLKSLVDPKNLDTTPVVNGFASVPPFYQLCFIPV
hERG Channel, sequence (Q12809 whole entry): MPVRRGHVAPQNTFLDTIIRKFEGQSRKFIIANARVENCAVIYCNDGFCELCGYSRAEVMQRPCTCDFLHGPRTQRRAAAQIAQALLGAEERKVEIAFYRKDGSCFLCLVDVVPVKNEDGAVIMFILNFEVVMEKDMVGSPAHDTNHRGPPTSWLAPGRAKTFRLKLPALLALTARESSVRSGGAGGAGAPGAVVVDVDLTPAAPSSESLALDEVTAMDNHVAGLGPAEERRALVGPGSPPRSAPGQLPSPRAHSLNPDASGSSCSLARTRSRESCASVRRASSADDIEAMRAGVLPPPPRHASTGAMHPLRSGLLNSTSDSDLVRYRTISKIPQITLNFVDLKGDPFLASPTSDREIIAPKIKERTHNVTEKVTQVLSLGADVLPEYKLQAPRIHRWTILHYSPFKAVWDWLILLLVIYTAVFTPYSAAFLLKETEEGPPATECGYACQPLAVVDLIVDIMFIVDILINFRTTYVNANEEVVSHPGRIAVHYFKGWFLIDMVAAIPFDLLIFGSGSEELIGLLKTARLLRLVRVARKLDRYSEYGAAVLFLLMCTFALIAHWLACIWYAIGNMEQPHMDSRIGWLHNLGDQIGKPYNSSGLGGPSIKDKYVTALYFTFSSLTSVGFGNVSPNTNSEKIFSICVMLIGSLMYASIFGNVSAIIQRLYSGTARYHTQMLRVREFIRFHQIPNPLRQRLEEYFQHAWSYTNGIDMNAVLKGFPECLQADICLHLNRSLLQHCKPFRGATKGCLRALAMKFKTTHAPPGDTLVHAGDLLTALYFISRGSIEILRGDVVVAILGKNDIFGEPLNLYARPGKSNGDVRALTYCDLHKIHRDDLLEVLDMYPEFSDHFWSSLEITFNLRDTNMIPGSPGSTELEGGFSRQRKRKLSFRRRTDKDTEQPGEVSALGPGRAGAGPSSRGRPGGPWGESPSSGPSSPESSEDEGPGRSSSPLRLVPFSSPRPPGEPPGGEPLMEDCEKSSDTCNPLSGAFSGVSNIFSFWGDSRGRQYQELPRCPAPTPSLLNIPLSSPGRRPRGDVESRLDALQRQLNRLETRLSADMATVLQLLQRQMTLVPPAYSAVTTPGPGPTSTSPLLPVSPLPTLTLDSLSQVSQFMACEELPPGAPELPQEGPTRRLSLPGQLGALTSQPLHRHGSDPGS

## CC(=O)Nc1cccc(-n2c(=O)n(C3CC3)c(=O)c3c(Nc4ccc(I)cc4F)n(C)c(=O)c(C)c32)c1 [trametinib]
[1]
  half-lives per (BID) cycle: ≤ 0.25 half-lives
[2]; human
  human plasma half-life: 96 h

## O=C(c1ccc(F)c(F)c1Nc1ccc(I)cc1F)N1CC(O)([C@@H]2CCCCN2)C1 [cobimetinib]
[1]
  half-lives per (BID) cycle: ≤ 0.55 half-lives
[2]; human
  Tmax: 2.4 h
  human plasma half-life: 44 h

## COc1ccc2[nH]c([S+]([O-])Cc3ncc(C)c(OC)c3C)nc2c1 (stereo not drawn) [Omeprazole]
CYP450 2C19
  CYP450 Panel 2C19: 61.6

## Nc1ccc(S(=O)(=O)Nc2ccnn2-c2ccccc2)cc1 [Sulfaphenazole]
CYP450 2C9
  CYP450 Panel 2C9: 101.2

## C=C[C@H]1C[N@@]2CC[C@H]1C[C@@H]2[C@@H](O)c1ccnc2ccc(OC)cc12 [Quinidine]
CYP450 2D6 [3]
  CYP450 Panel 2D6: 99.7

## CNS(=O)(=O)Nc1cccc(Cc2c(C)c3ccc(OC(=O)N(C)C)cc3oc2=O)c1F [Reference 7]
CYP450 3A4
  CYP450 Panel 3A4 (midazolam): 29.9%
  CYP450 Panel 3A4 (testosterone): 59.7%
hERG Channel
  IC50: 28.6 µM
[4]
  Microsome stability, % Remaining @1 hour: 61.1%
[5]
  Plasma stability, % Remaining @2 hour: 88.1%
[6]
  Plasma stability, % Remaining @2 hour: 99.8%
pERK in A549 (KRAS-G12S); Table 8A
  pERK: total ERK (% relative to vehicle): 0.53%
pERK in A549 (KRAS-G12S); Table 8B
  pERK: total ERK (% relative to vehicle): 3.33%
CYP450 2C19
  CYP450 Panel 2C19: 11.6
[7]
  Microsome stability, % Remaining @1 hour: 57.0%
CYP450 2C9
  CYP450 Panel 2C9: 33.8
Caco-2 permeability
  Papp A→B at 2 h, 10 μM: 14.4 ×10⁻⁶ cm/s
  Papp B→A at 2 h, 10 μM: 10 ×10⁻⁶ cm/s
  efflux ratio at 2 h, 10 μM: 0.695
Caco-2 [8]
  A − B Permeability Ranking: High
[9]
  Microsome stability, % Remaining @1 hour: 29.6%
[10]
  Plasma stability, % Remaining @2 hour: 77.3%
CYP450 1A2
  CYP450 Panel 1A2: 0.3
CYP450 2C8
  CYP450 Panel 2C8: 14.4%
[11]
  Microsome stability, % Remaining @1 hour: 2.7%
CYP450 2D6 [12]
  CYP450 Panel 2D6: −7.4
[13]
  Plasma stability, % Remaining @2 hour: 56.5%
CYP450 2B6
  CYP450 Panel 2B6: 28.5%

## CC(=O)CC(c1ccccc1)c1c(O)c2ccccc2oc1=O (stereo not drawn) [Warfarin]
Caco-2 [14]
  A − B Permeability Ranking: High

## Cn1cnc2c(F)c(Nc3ccc(Br)cc3F)c(C(=O)NOCCO)cc21 [Binimetinib]
[1]
  half-lives per (BID) cycle: ≤ 3.4 half-lives
[2]; in vivo
  half-life: 3.5 h

## CNC(=C[N+](=O)[O-])NCCSCc1ccc(CN(C)C)o1 [Ranitidine]
Caco-2 [8]
  A − B Permeability Ranking: Low

## CC(C)[N+](C)(CCOC(=O)C1c2ccccc2Oc2ccccc21)C(C)C [Propantheline]
[5]
  Plasma stability, % Remaining @2 hour: 5.7%
[6]
  Plasma stability, % Remaining @2 hour: 58.4%
[10]
  Plasma stability, % Remaining @2 hour: 92.6%
[13]
  Plasma stability, % Remaining @2 hour: 27.1%

## CC[C@H](C)C(=O)O[C@H]1C[C@@H](C)C=C2C=C[C@H](C)[C@H](CC[C@@H]3C[C@@H](O)CC(=O)O3)[C@H]21 [Lovastatin]
[5]
  Plasma stability, % Remaining @2 hour: 81.8%
[6]
  Plasma stability, % Remaining @2 hour: 94.1%
[10]
  Plasma stability, % Remaining @2 hour: 0.6%
[13]
  Plasma stability, % Remaining @2 hour: 0.6%

## O=c1c(O)c(-c2ccc(O)c(O)c2)oc2cc(O)cc(O)c12 [Quercetin]
CYP450 2C8
  CYP450 Panel 2C8: 93.1%

## CNS(=O)(=O)Nc1nccc(Cc2c(C)c3ccc(Oc4ncccn4)cc3oc2=O)c1F [Reference 2]
CYP450 3A4
  CYP450 Panel 3A4 (midazolam): 16.6%
  CYP450 Panel 3A4 (testosterone): 15.7%
[15]
  Liver concentration: 1990 ng/g
  Muscle concentration: 550 ng/g
  Plasma concentration: 5670 ng/mL
  Tumor concentration: 819 ng/g
[4]
  Microsome stability, % Remaining @1 hour: 107.1%
[5]
  Plasma stability, % Remaining @2 hour: 91.1%
[6]
  Plasma stability, % Remaining @2 hour: 99.8%
CYP450 2C19
  CYP450 Panel 2C19: −0.9
[7]
  Microsome stability, % Remaining @1 hour: 111.6%
Caco-2 [8]
  A − B Permeability Ranking: High
[9]
  Microsome stability, % Remaining @1 hour: 96.0%
[10]
  Plasma stability, % Remaining @2 hour: 99.8%
CYP450 1A2
  CYP450 Panel 1A2: 0.8
[11]
  Microsome stability, % Remaining @1 hour: 102.0%
CYP450 2D6 [12]
  CYP450 Panel 2D6: 3.4
[16]
  eLogD (lipophilicity; pH = 7.4): 3.6
[13]
  Plasma stability, % Remaining @2 hour: 92.9%
